In US8987268B2, “Pyrrolopyridazine JAK3 inhibitors and their use for the treatment of inflammatory and autoimmune diseases” (Bristol-Myers Squibb Company, priority 2011, dated 2015):
pIC50: −log10 of the molar value.

Legend:
[1] = target: GST-JAK1 enzyme (Homo sapiens (Human), UniProt P23458); experiment: JAK1 Kinase Assay Protocol; format: biochemical; conditions: JAK1 kinase inhibition; read-out: LLE_JAK1 (IC50)
Experimental: JAK1 Kinase Assay Protocol
(§1) The assay reactions were performed in U-bottom 384-well plates. […] The reaction was initiated by the combination of GST-JAK1 enzyme with substrates and test compounds. The reactions were incubated at room temperature for 3 hours and terminated by adding 60 μl of 35 mM EDTA to each sample. Each reaction mixture was analyzed on the Caliper LabChip 3000 (Caliper, Hopkinton, Mass.) by electrophoretic separation of the fluorescent substrate and phosphorylated product. […] Compounds were dissolved at 10 mM in dimethylsulfoxide (DMSO) and evaluated at eleven concentrations. IC50 values were derived by non-linear regression analysis.

[2] = target: GST-JAK3 enzyme (Homo sapiens (Human), UniProt P52333); experiment: JAK3 Kinase Assay Protocol (Caliper); format: biochemical; conditions: JAK3 kinase inhibition; read-out: LLE_JAK3_FB (IC50)
Sequence of GST-JAK3 enzyme (P52333 whole entry): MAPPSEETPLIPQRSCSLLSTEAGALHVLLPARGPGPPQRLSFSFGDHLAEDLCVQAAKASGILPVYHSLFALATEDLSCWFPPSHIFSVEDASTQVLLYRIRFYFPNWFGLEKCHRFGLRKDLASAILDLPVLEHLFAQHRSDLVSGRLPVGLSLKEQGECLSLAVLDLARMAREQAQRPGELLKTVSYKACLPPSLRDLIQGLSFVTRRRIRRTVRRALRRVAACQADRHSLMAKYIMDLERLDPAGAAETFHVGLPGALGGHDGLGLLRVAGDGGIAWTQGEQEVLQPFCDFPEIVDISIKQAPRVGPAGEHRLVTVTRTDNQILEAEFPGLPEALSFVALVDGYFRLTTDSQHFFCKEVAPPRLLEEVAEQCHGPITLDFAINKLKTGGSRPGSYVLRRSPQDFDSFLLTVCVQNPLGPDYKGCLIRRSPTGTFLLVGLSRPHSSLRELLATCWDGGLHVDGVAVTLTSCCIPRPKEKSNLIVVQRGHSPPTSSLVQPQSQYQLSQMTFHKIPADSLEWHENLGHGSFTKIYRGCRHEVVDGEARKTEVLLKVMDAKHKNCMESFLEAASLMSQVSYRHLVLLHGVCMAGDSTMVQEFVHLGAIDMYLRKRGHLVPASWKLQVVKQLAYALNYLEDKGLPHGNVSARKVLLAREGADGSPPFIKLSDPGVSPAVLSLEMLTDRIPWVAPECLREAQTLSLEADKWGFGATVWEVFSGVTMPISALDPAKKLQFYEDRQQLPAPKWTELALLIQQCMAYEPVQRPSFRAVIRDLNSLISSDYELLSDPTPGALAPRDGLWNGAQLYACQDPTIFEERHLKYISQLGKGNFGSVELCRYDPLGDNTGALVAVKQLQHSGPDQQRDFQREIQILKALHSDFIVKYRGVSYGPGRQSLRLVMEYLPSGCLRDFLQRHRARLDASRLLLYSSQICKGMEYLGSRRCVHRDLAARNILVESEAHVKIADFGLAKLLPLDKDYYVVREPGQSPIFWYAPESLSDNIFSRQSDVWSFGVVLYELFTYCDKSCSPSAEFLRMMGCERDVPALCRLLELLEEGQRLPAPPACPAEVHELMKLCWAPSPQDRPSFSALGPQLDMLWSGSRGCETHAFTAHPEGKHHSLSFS
Experimental: JAK3 Kinase Assay Protocol (Caliper)
as §1, with “GST-JAK3” for “GST-JAK1”

Sequence of GST-JAK1 enzyme (P23458 whole entry): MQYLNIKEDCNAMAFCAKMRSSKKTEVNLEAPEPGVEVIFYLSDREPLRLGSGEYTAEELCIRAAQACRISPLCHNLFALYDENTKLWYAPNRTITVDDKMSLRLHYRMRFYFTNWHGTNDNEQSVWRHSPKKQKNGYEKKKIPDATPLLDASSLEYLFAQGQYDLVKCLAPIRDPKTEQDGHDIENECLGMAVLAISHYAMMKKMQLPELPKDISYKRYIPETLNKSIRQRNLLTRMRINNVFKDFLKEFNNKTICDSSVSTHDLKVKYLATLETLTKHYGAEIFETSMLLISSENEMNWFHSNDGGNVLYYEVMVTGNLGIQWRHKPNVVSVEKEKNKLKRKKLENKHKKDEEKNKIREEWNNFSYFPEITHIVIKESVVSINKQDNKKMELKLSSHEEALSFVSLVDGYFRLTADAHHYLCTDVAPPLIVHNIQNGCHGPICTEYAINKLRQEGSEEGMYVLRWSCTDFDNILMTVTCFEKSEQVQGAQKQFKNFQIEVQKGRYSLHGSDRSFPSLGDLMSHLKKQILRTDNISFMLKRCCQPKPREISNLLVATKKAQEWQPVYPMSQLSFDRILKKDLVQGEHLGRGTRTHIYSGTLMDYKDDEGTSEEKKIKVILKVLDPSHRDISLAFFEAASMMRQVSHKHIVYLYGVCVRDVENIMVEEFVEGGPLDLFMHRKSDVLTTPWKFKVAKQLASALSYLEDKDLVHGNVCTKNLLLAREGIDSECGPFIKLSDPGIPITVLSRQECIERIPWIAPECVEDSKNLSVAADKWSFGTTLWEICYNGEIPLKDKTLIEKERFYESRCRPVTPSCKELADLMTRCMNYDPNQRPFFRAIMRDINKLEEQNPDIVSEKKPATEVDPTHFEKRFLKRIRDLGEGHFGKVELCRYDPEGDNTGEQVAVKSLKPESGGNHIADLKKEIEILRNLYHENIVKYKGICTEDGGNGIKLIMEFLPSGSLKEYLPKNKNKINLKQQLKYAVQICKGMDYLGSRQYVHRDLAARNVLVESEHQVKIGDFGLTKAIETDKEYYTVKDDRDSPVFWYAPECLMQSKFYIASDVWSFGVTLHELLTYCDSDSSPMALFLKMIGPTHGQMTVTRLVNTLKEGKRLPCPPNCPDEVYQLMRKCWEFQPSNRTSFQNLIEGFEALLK

Compound	pIC50 [1]	pIC50 [2]
N#Cc1ccccc1-c1cc2c(NC3CCOCC3)c(C(N)=O)cnn2c1 [Example 33, 6-(2-cyanophenyl)-4-(tetrahydro-2H-pyran-4-ylamino)pyrrolo[1,2-b]pyridazine-3-carboxamide]	6.96	7.40
CC[C@H]1CN(C(=O)C2(C#N)CC2)C[C@H]1Nc1c(C(N)=O)cnn2cc(-c3cc(C)no3)cc12 [Example 292, 4-(((3S,4S)-1-(1-cyanocyclopropanecarbonyl)-4-ethylpyrrolidin-3-yl)amino)-6-(3-methylisoxazol-5-yl)pyrrolo[1,2-b]pyridazine-3-carboxamide]	9.15	9.30
CC(=O)N1C[C@H]2C[C@@H](Nc3c(C(N)=O)cnn4cc(-c5cnn(C)c5)cc34)[C@H](C)[C@H]2C1 [Example 93, 4-((3aS,4R,5R,6aS)-2-acetyl-4-methyloctahydrocyclopenta[c]pyrrol-5-ylamino)-6-(1-methyl-1H-pyrazol-4-yl)pyrrolo[1,2-b]pyridazine-3-carboxamide]		9.40
COc1ccc(-c2cc3c(N[C@@H]4CCN(C(=O)C(N)=O)CC4(C)C)c(C(N)=O)cnn3c2)cn1 [Example 55, (R)-4-(1-(2-amino-2-oxoacetyl)-3,3-dimethylpiperidin-4-ylamino)-6-(6-methoxypyridin-3-yl)pyrrolo[1,2-b]pyridazine-3-carboxamide]	8.36	9.05
CC[C@H]1CN(C(=O)C2(C#N)CCC2)C[C@H]1Nc1c(C(N)=O)cnn2cc(-c3ccnc(Cl)c3)cc12 [Example 257, 6-(2-chloropyridin-4-yl)-4-((3S,4S)-1-(1-cyanocyclobutanecarbonyl)-4-ethylpyrrolidin-3-ylamino)pyrrolo[1,2-b]pyridazine-3-carboxamide]	8.92	9.52
CC[C@@H]1CN(C(=O)[C@@H](O)CC)CC[C@H]1Nc1c(C(N)=O)cnn2cc(-c3cnn(C)c3)cc12 [Example 127, 4-(((3R,4R)-3-ethyl-1-((S)-2-hydroxybutanoyl)piperidin-4-yl)amino)-6-(1-methyl-1H-pyrazol-4-yl)pyrrolo[1,2-b]pyridazine-3-carboxamide]	8.12	8.25
C[C@H]1CN(C(=O)CC#N)C[C@H]1Nc1c(C(N)=O)cnn2cc(-c3ccnc(F)c3)cc12 [Example 201, 4-(((3S,4S)-1-(2-cyanoacetyl)-4-methylpyrrolidin-3-yl)amino)-6-(2-fluoropyridin-4-yl)pyrrolo[1,2-b]pyridazine-3-carboxamide]	9.30	8.85
CO[C@H]1CN(C(=O)C2(C#N)CC2)C[C@H]1Nc1c(C(N)=O)cnn2cc(-c3ccc(C#N)cc3)cc12 [Example 308, 4-(((3R,4S)-1-(1-cyanocyclopropanecarbonyl)-4-methoxypyrrolidin-3-yl)amino)-6-(4-cyanophenyl)pyrrolo[1,2-b]pyridazine-3-carboxamide]	8.82	8.18
COc1ccc(-c2cc3c(N[C@@H]4CN(S(C)(=O)=O)C[C@@H]4OC)c(C(N)=O)cnn3c2)cn1 [Example 315, 4-((3R,4S)-4-methoxy-1-(methylsulfonyl)pyrrolidin-3-ylamino)-6-(6-methoxypyridin-3-yl)pyrrolo[1,2-b]pyridazine-3-carboxamide]	8.10	8.05
CC[C@@H]1CN(C(=O)[C@@H](C)O)CC[C@H]1Nc1c(C(N)=O)cnn2cc(-c3cnn(C)c3)cc12 [Example 152, 4-((3R,4R)-3-ethyl-1-((R)-2-hydroxypropanoyl)piperidin-4-ylamino)-6-(1-methyl-1H-pyrazol-4-yl)pyrrolo[1,2-b]pyridazine-3-carboxamide]	8.05	8.11
CC1(C)CN(c2ccc(C#N)cn2)CC[C@H]1Nc1c(C(N)=O)cnn2cc(N3CC[C@@H](O)C3=O)cc12 [Example 105, 4-((R)-1-(5-cyanopyridin-2-yl)-3,3-dimethylpiperidin-4-ylamino)-6-((R)-3-hydroxy-2-oxopyrrolidin-1-yl)pyrrolo[1,2-b]pyridazine-3-carboxamide]	9.15	9.70
CC[C@H]1CN(C(=O)C2(C#N)CC2)C[C@H]1Nc1c(C(N)=O)cnn2cc(-c3cn(C)nc3C)cc12 [Example 220, 4-((3S,4S)-1-(1-cyanocyclopropanecarbonyl)-4-ethylpyrrolidin-3-ylamino)-6-(1,3-dimethyl-1H-pyrazol-4-yl)pyrrolo[1,2-b]pyridazine-3-carboxamide]	8.96	8.82
C[C@@H]1[C@H]2CN(C(=O)C(C)(C)O)C[C@H]2C[C@H]1Nc1c(C(N)=O)cnn2cc(-c3cnc(N)nc3)cc12 [Example 62, 6-(2-amino-5-pyrimidinyl)-4-(((3aS,4R,5R,6aS)-2-(2-hydroxy-2-methylpropanoyl)-4-methyloctahydrocyclopenta[c]pyrrol-5-yl)amino)pyrrolo[1,2-b]pyridazine-3-carboxamide]	8.44	9.00
CNC(=O)c1ccc(-c2cc3c(N[C@@H]4CN(C(=O)OC)C[C@@H]4C)c(C(N)=O)cnn3c2)cn1 [Example 213, (3S,4S)-methyl 3-((3-carbamoyl-6-(6-(methylcarbamoyl)pyridin-3-yl)pyrrolo[1,2-b]pyridazin-4-yl)amino)-4-methylpyrrolidine-1-carboxylate]	8.33	8.12
CC[C@@H]1CN(C(=O)[C@H](C)O)CC[C@H]1Nc1c(C(N)=O)cnn2cc(-c3ccnc(OC)c3)cc12 [Example 134, 4-((3R,4R)-3-ethyl-1-((S)-2-hydroxypropanoyl)piperidin-4-ylamino)-6-(2-methoxypyridin-4-yl)pyrrolo[1,2-b]pyridazine-3-carboxamide]	8.35	8.15
C[C@H]1CN(c2ccc(C#N)cn2)C[C@H]1Nc1c(C(N)=O)cnn2cc(-c3cnn(CC(=O)N4CCC(F)(F)C4)c3)cc12 [Example 185, 4-(((3S,4S)-1-(5-cyanopyridin-2-yl)-4-methylpyrrolidin-3-yl)amino)-6-(1-(2-(3,3-difluoropyrrolidin-1-yl)-2-oxoethyl)-1H-pyrazol-4-yl)pyrrolo[1,2-b]pyridazine-3-carboxamide]	9.52	9.22
NC(=O)c1cnn2cc(-c3cncc(F)c3)cc2c1NC1CCOCC1 [Example 29, 6-(5-fluoro-3-pyridinyl)-4-(tetrahydro-2H-pyran-4-ylamino)pyrrolo[1,2-b]pyridazine-3-carboxamide]	6.92	7.15
NC(=O)c1cnn2cc(-c3cncnc3)cc2c1NC1CCOCC1 [Example 32, 6-(5-pyrimidinyl)-4-(tetrahydro-2H-pyran-4-ylamino)pyrrolo[1,2-b]pyridazine-3-carboxamide]	6.09	6.83
CO[C@H]1CN(C(=O)C2(C#N)CC2)C[C@H]1Nc1c(C(N)=O)cnn2cc(-c3ccc(F)cc3)cc12 [Example 305, 4-(((3R,4S)-1-(1-cyanocyclopropanecarbonyl)-4-methoxypyrrolidin-3-yl)amino)-6-(4-fluorophenyl)pyrrolo[1,2-b]pyridazine-3-carboxamide]	8.96	8.82
CC[C@@H]1CN(C(=O)C(C)(C)O)CC[C@H]1Nc1c(C(N)=O)cnn2cc(-c3ccnc(C)c3)cc12 [Example 131, 4-((3R,4R)-3-ethyl-1-(2-hydroxy-2-methylpropanoyl)piperidin-4-ylamino)-6-(2-methylpyridin-4-yl)pyrrolo[1,2-b]pyridazine-3-carboxamide]	8.44	8.15
C[C@@H]1[C@H]2CN(C(=O)C(C)(C)O)C[C@H]2C[C@H]1Nc1c(C(N)=O)cnn2cc(-c3cnn(C)c3)cc12 [Example 83, 4-((3aS,4R,5R,6aS)-2-(2-hydroxy-2-methylpropanoyl)-4-methyloctahydrocyclopenta[c]pyrrol-5-ylamino)-6-(1-methyl-1H-pyrazol-4-yl)pyrrolo[1,2-b]pyridazine-3-carboxamide]	8.85	8.82
C[C@@H]1[C@H]2CN(S(C)(=O)=O)C[C@H]2C[C@H]1Nc1c(C(N)=O)cnn2cc(-c3nnn(C)n3)cc12 [Example 67, 4-(((3aS,4R,5R,6aS)-4-methyl-2-(methylsulfonyl)octahydrocyclopenta[c]pyrrol-5-yl)amino)-6-(2-methyl-2H-tetrazol-5-yl)pyrrolo[1,2-b]pyridazine-3-carboxamide]	8.89	9.40
CCOC(=O)N1CCC[C@@H](Nc2c(C(N)=O)cnn3cc(-c4ccccc4)cc23)C1 [Example 51, ethyl (3R)-3-((3-carbamoyl-6-phenylpyrrolo[1,2-b]pyridazin-4-yl)amino)-1-piperidinecarboxylate]	6.04	6.55
CS(=O)(=O)N1C[C@H](CF)[C@H](Nc2c(C(N)=O)cnn3cc(-c4ccc(C(F)(F)F)nc4)cc23)C1 (racemic) [Example 275, (+/−)-Cis-4-((-4-(fluoromethyl)-1-(methylsulfonyl)pyrrolidin-3-yl)amino)-6-(6-(trifluoromethyl)pyridin-3-yl)pyrrolo[1,2-b]pyridazine-3-carboxamide]	8.21	
COc1ccc(-c2cc3c(N[C@@H]4CCN(C(=O)[C@@H](C)O)CC4(C)C)c(C(N)=O)cnn3c2)cn1 [Example 56]		8.48
